In the NIST ThermoML archive (doi:10.1007/s10765-005-5567-5):

Test: mn = molality of the nth substance listed, in mol/kg
Details: Liquid; for viscosity: Capillary tube (Ostwald / Ubbelohde) method; for thermal conductivity: Coaxial cylinder method

O=S(=O)([O-])[O-].[K+].[K+] [potassium sulfate] + O
Details | thermal conductivity, 10000 kPa [W/m/K] | thermal conductivity, 30000 kPa [W/m/K] | viscosity, 10 kPa [mPa·s] | viscosity, 20 kPa [mPa·s] | viscosity, 30 kPa [mPa·s]
397.25 K, m1 = 0.305 | – | – | – | 0.2531 | 0.2565
398.55 K, m1 = 0.0658 | – | – | 0.2289 | 0.2321 | 0.236
422.05 K, m1 = 0.407 | – | – | 0.2131 | 0.2154 | 0.2189
423 K, m1 = 0.499 | 0.678 | 0.69 | – | – | –
423.3 K, m1 = 0.782 | 0.671 | 0.684 | – | – | –
423.55 K, m1 = 0.305 | – | – | 0.204 | 0.2068 | 0.2096
423.6 K, m1 = 0.239 | 0.683 | 0.696 | – | – | –
423.85 K, m1 = 0.0658 | – | – | 0.1881 | 0.1926 | 0.196
425.45 K, m1 = 0.2055 | – | – | 0.1946 | 0.1974 | 0.2
446.85 K, m1 = 0.407 | – | – | 0.1811 | 0.184 | 0.1867
447.35 K, m1 = 0.0658 | – | – | 0.1613 | 0.1645 | 0.166
448.1 K, m1 = 0.782 | 0.665 | 0.681 | – | – | –
448.35 K, m1 = 0.2055 | – | – | 0.1679 | 0.1705 | 0.1732
448.55 K, m1 = 0.305 | – | – | 0.1735 | 0.1769 | 0.179
448.7 K, m1 = 0.239 | 0.678 | 0.691 | – | – | –
449.8 K, m1 = 0.499 | 0.672 | 0.686 | – | – | –
470.75 K, m1 = 0.407 | – | – | 0.1586 | 0.1605 | 0.1641
472.05 K, m1 = 0.0658 | – | – | 0.1403 | 0.1436 | 0.146
472.9 K, m1 = 0.499 | 0.659 | 0.676 | – | – | –
473.4 K, m1 = 0.239 | 0.665 | 0.681 | – | – | –
473.8 K, m1 = 0.782 | 0.652 | 0.671 | – | – | –
475.85 K, m1 = 0.305 | – | – | 0.1492 | 0.1521 | 0.1545
477.45 K, m1 = 0.2055 | – | – | 0.143 | 0.1456 | 0.1482
496.35 K, m1 = 0.0658 | – | – | 0.1244 | 0.1276 | 0.13
497.45 K, m1 = 0.2055 | – | – | 0.1294 | 0.1322 | 0.1348
498.3 K, m1 = 0.499 | 0.639 | 0.657 | – | – | –
498.5 K, m1 = 0.239 | 0.644 | 0.664 | – | – | –
498.55 K, m1 = 0.407 | – | – | 0.1388 | 0.1409 | 0.1444
498.6 K, m1 = 0.782 | 0.632 | 0.65 | – | – | –
499.95 K, m1 = 0.305 | – | – | 0.1332 | 0.1369 | 0.14
523.05 K, m1 = 0.2055 | – | – | 0.1162 | 0.1191 | 0.1219
523.2 K, m1 = 0.499 | 0.61 | 0.63 | – | – | –
523.3 K, m1 = 0.239 | 0.617 | 0.637 | – | – | –
523.85 K, m1 = 0.407 | – | – | 0.1248 | 0.1286 | 0.1307
523.9 K, m1 = 0.782 | 0.602 | 0.623 | – | – | –
524.45 K, m1 = 0.0658 | – | – | 0.1097 | 0.1135 | 0.116
527.35 K, m1 = 0.305 | – | – | 0.1185 | 0.1216 | 0.1243
541.55 K, m1 = 0.407 | – | – | 0.1171 | 0.12 | 0.1236
545.05 K, m1 = 0.0658 | – | – | 0.1008 | 0.1045 | 0.1072
547.9 K, m1 = 0.239 | 0.584 | 0.61 | – | – | –
548.2 K, m1 = 0.499 | 0.577 | 0.604 | – | – | –
548.45 K, m1 = 0.305 | – | – | 0.1087 | 0.1119 | 0.115
548.5 K, m1 = 0.782 | 0.57 | 0.598 | – | – | –
550.55 K, m1 = 0.2055 | – | – | 0.1039 | 0.1072 | 0.1105
571.55 K, m1 = 0.0658 | – | – | 0.0902 | 0.094 | 0.0972
573.2 K, m1 = 0.499 | 0.534 | 0.568 | – | – | –
573.2 K, m1 = 0.782 | 0.525 | 0.56 | – | – | –
573.35 K, m1 = 0.305 | – | – | 0.0976 | 0.1016 | 0.1035
573.8 K, m1 = 0.239 | 0.54 | 0.574 | – | – | –
574.35 K, m1 = 0.2055 | – | – | 0.094 | 0.0973 | 0.1014
575.25 K, m1 = 0.407 | – | – | 0.1021 | 0.1067 | 0.1102
